Source: ChEMBL document CHEMBL1201862, “PubChem BioAssay data set” (2004)
The source made the active and inactive calls.

Key:
[1] = target: Dual specificity protein phosphatase 3 (Homo sapiens, UniProt P51452); experiment: VHR phosphatase inhibition, dose response, selectivity assay for STEP inhibitor project, biochemical (AID 602374); format: functional; settings: read-out: IC50_Mean
[2] = target: Tyrosine-protein phosphatase non-receptor type 11 (Homo sapiens, UniProt Q06124); experiment: SHP2 phosphatase inhibition, dose response, selectivity assay for STEP inhibitor project, biochemical (AID 602367); format: functional; settings: read-out: IC50_Mean
Chain of Tyrosine-protein phosphatase non-receptor type 11 (Q06124 whole entry): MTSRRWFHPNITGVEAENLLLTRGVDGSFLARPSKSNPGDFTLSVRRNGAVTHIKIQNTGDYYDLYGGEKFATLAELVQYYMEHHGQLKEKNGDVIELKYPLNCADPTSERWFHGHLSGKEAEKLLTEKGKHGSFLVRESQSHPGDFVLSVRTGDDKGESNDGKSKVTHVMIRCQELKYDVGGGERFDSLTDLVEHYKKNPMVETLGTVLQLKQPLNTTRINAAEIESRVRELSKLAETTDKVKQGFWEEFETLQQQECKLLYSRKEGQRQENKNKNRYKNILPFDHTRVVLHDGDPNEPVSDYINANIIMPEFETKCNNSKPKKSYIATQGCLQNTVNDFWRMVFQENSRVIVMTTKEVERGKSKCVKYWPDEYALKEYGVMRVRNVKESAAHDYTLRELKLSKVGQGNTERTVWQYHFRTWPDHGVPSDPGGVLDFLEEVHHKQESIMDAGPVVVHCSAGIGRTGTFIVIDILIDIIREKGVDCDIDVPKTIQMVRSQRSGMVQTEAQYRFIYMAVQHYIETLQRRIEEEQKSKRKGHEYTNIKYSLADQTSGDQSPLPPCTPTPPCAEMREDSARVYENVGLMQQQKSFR

[3] = target: Tyrosine-protein phosphatase non-receptor type 5 (Homo sapiens, UniProt P54829); experiment: STEP phosphatase inhibitors, confirmation, biochemical, fluorescence intensity, uHTS hits (AID 602372); format: functional; settings: read-out: IC50_Mean
Chain of Tyrosine-protein phosphatase non-receptor type 5 (P54829 whole entry): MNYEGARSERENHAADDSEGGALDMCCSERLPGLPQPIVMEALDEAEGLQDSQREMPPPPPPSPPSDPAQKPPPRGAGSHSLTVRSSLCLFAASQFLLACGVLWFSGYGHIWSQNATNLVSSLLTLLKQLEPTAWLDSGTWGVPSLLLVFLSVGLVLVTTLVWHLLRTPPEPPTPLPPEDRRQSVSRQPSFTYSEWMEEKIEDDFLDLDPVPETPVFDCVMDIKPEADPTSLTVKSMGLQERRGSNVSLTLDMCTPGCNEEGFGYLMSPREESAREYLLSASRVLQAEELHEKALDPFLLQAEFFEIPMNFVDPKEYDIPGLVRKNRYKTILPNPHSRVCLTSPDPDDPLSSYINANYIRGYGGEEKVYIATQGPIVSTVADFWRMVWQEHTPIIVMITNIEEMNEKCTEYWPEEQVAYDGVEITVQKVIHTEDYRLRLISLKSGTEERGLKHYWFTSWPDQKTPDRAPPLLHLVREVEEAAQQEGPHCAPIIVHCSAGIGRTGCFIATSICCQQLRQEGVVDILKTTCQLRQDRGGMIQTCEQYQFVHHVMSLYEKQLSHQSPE

[4] = target: Potassium voltage-gated channel subfamily KQT member 2 (Rattus norvegicus, UniProt O88943); experiment: KCNQ2 potassium channel inhibitors, dose response, cell-based, automated electrophysiology, set II, rat KCNQ2 (AID 588637); format: functional
Chain of Potassium voltage-gated channel subfamily KQT member 2 (O88943 whole entry): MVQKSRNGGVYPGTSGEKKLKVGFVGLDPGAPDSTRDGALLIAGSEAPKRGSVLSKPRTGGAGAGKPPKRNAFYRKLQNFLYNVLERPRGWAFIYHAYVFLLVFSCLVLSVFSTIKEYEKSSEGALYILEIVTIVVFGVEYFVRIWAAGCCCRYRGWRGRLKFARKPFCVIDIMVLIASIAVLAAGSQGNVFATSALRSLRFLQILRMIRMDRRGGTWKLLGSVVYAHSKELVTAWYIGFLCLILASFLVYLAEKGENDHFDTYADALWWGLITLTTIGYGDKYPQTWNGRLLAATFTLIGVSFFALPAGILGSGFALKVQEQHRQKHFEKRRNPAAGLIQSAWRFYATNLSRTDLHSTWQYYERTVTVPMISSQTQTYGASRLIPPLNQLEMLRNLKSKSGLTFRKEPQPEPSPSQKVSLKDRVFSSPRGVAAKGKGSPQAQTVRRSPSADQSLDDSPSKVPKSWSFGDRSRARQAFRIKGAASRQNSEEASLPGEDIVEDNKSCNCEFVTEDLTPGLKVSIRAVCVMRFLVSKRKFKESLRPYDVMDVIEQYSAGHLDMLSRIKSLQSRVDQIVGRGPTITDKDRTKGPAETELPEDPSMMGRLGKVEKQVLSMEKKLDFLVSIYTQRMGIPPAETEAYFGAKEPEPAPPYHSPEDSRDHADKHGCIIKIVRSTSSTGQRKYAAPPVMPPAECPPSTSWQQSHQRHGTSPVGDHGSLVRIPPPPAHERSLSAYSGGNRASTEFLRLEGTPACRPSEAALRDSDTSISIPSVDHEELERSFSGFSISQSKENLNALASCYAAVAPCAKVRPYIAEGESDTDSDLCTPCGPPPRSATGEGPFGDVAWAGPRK

[5] = system: Escherichia coli; experiment: microbe, parasite or virus in culture
[6] = AlphaScreen signal interference compounds, dose response, artefact control for ARNT-TACC3 interaction inhibitor project, biochemical, luminescence, cherry-pick (AID 651705); format: functional;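 further: AlphaScreen bead proximity signal that flags compounds interfering with the detection technology; potency reflects signal decrease which marks the compound as an assay artifact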
[7] = target: Cytochrome P450 3A4 (Homo sapiens, UniProt P08684);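 further: CYP3A4 tested as one member of a cytochrome P450 panel screen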
Chain of Cytochrome P450 3A4 (P08684 whole entry): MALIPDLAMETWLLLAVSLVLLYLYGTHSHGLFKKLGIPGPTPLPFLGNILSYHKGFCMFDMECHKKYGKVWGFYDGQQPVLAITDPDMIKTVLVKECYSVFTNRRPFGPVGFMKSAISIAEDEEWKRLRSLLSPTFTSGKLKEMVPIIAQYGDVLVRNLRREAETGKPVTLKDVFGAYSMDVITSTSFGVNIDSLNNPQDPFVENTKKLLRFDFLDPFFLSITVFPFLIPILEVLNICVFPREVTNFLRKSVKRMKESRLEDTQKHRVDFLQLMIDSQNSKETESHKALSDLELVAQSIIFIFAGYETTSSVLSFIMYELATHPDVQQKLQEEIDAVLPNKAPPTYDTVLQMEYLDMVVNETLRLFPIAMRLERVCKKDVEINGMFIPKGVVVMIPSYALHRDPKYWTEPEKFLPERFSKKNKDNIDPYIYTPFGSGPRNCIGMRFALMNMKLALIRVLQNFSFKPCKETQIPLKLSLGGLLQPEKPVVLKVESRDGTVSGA

[8] = target: Adenosylmethionine-8-amino-7-oxononanoate aminotransferase (Mycobacterium tuberculosis, UniProt P9WQ81); experiment: Mycobacterium tuberculosis BioA enzyme inhibitor Measured in Biochemical System Using Plate Reader - 2163-02_Inhibitor_Dose_CherryPick_Activity.; format: functional, Mycobacterium tuberculosis UT205
Chain of Adenosylmethionine-8-amino-7-oxononanoate aminotransferase (P9WQ81 whole entry): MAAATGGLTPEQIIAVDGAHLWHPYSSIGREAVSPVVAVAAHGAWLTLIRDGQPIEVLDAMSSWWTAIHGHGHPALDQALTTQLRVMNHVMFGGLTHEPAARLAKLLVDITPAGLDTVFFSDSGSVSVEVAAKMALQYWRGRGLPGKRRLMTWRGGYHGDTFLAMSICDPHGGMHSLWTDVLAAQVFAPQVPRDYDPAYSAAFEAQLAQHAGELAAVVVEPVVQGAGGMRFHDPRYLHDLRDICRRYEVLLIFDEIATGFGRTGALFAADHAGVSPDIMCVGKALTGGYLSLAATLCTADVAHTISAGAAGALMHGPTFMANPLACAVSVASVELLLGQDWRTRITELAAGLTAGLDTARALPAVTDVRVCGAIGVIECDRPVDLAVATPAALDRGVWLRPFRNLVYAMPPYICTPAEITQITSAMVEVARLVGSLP

[9] = system: Vero; experiment: Vero cell cytotoxicity, cytotoxicity control for flavivirus capping enzyme inhibitors (AID 588742); format: functional; settings: Chlorocebus sabaeus
[10] = target: Genome polyprotein (dengue virus type 2, UniProt P29990); experiment: Dengue-2 NS5 methyltransferase inhibitors, primary screen, biochemical, confirmation dose response (AID 588689); format: functional
Chain of Genome polyprotein (P29990 2492-3391 limits assumed): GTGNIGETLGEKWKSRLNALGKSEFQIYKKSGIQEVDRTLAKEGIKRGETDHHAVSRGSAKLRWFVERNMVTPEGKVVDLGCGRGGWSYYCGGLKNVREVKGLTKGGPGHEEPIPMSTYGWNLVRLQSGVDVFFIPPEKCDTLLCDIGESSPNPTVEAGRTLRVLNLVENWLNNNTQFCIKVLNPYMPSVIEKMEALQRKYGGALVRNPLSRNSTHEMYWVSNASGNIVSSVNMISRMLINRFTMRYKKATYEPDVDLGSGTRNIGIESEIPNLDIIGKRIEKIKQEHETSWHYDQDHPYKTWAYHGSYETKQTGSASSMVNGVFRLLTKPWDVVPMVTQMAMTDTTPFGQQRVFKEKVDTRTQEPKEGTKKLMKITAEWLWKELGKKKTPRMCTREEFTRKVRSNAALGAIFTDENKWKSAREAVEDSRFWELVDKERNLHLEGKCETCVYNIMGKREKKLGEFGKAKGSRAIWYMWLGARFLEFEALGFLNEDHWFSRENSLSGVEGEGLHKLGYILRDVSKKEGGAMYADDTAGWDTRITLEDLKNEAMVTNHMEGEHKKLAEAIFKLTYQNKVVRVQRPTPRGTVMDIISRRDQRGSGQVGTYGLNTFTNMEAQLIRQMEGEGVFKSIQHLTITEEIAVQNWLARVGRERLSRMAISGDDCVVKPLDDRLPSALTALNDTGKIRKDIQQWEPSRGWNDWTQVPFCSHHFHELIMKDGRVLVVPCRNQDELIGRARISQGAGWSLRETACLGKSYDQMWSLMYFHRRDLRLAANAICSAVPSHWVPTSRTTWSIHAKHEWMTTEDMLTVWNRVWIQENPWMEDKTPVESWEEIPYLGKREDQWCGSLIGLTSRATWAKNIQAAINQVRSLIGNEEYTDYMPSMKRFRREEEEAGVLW

[11] = target: T1, Protein RecA (Mycobacterium tuberculosis, UniProt P9WHJ3); experiment: Fluorescence Cell-Free Homogeneous Dose Retest to Identify Inhibitors of RecA-Intein Splicing Activity. [Related pubchem assays (depositor defined):AID2097, AID2223, AID489010, AID492950]; format: functional
T1 sequence (P9WHJ3 whole entry): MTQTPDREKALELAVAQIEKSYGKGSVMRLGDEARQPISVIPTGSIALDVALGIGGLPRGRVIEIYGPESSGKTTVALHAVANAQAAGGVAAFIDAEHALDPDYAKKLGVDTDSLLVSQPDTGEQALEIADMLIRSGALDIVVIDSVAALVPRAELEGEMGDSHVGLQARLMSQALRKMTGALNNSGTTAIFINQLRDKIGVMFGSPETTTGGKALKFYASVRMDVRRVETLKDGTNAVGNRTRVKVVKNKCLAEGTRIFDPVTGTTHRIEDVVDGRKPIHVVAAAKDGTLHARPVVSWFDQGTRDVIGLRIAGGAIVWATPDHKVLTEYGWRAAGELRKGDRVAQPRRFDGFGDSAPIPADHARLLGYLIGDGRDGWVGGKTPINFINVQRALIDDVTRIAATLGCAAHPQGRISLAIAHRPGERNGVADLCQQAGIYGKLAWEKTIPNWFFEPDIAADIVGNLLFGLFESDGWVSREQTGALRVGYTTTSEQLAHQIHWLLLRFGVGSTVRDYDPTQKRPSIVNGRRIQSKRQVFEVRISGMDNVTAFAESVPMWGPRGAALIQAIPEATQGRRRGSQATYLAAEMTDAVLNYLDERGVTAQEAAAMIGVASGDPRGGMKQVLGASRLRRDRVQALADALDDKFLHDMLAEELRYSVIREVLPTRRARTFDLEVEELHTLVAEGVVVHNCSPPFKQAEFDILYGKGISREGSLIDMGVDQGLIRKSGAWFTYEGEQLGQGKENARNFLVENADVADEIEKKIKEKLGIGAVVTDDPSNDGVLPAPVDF

[12] = Shn3 3'UTR reporter inhibitors, dose response, cell-based, Clone20 osteoblasts, firefly luciferase, cherry-picked (AID 624132); format: functional;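 further: firefly luciferase luminescence from reporter carrying the Shn3 3'UTR in osteoblasts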
[13] = target: T2, Replicative DNA helicase DnaB (Mycobacterium tuberculosis, UniProt P9WMR3); experiment: DnaB intein splicing inhibitors, dose response, biochemical, cell-free fluorescence (AID 449749); format: functional
T2 sequence (P9WMR3 whole entry): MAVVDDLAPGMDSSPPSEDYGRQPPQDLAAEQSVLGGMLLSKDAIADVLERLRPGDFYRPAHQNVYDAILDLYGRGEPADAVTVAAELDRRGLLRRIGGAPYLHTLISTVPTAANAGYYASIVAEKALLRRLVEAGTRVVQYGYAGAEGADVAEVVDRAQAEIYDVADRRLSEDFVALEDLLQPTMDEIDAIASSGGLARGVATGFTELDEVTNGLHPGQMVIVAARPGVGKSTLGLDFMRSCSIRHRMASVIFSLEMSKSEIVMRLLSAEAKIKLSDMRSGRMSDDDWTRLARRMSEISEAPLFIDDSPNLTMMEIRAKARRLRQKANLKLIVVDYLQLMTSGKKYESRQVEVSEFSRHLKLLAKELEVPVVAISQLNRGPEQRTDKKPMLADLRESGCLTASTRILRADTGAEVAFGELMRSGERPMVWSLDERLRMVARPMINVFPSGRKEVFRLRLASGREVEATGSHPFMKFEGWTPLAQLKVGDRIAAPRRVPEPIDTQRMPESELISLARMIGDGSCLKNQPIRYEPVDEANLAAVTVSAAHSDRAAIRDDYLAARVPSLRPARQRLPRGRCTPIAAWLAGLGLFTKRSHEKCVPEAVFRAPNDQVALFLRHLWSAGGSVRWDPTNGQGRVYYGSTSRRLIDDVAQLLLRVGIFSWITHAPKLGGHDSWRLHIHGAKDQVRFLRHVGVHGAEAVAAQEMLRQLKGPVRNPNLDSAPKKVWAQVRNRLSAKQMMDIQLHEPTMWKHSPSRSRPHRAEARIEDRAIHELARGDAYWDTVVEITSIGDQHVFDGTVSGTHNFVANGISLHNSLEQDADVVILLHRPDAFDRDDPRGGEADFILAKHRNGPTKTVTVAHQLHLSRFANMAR

[14] = HepG2 cell cytotoxicity, dose response, cytotoxicity control for Shn3 inhibitor project, CellTiter-Glo, cherry-picked (AID 624134); format: functional, cell-based
[15] = target: Hepatocyte nuclear factor 4-alpha (Homo sapiens, UniProt P41235); format: functional, cell-based;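 further: biochemical luminescence-based dose-response counterscreen measuring inhibition of HNF4 dimerization, run alongside a screen for blockers of ABHD5–perilipin-5 interaction; split luciferase complementation of HNF4 fusion proteins in cell lysate measuring dimerization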
Chain of Hepatocyte nuclear factor 4-alpha (P41235 whole entry, the tested form may be a part): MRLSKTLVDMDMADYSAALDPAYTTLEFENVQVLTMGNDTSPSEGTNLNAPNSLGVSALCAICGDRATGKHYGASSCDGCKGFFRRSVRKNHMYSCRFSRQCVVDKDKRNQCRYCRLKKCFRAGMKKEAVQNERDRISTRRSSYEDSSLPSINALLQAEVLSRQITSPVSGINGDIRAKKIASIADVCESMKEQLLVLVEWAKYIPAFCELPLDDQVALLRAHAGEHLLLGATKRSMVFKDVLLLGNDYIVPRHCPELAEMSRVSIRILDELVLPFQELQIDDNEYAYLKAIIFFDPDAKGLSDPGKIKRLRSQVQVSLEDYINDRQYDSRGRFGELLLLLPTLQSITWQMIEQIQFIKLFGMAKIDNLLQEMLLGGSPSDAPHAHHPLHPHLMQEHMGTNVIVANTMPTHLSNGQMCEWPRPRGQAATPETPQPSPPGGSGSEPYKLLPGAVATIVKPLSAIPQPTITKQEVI

[16] = control 3'UTR Renilla luciferase suppression, dose response, counter-screen for Shn3 inhibitor project, cell-based, Clone20-Shn3RL, cherry-picked (AID 624133); format: functional
[17] = target: T3, High affinity choline transporter 1 (Homo sapiens, UniProt Q9GZV3); experiment: inhibitors of CHT choline uptake, dose response, cell-based, 3H-choline uptake, CHT LV-AA trafficking mutant, CRC (AID 602208); format: functional
T3 sequence (Q9GZV3 whole entry): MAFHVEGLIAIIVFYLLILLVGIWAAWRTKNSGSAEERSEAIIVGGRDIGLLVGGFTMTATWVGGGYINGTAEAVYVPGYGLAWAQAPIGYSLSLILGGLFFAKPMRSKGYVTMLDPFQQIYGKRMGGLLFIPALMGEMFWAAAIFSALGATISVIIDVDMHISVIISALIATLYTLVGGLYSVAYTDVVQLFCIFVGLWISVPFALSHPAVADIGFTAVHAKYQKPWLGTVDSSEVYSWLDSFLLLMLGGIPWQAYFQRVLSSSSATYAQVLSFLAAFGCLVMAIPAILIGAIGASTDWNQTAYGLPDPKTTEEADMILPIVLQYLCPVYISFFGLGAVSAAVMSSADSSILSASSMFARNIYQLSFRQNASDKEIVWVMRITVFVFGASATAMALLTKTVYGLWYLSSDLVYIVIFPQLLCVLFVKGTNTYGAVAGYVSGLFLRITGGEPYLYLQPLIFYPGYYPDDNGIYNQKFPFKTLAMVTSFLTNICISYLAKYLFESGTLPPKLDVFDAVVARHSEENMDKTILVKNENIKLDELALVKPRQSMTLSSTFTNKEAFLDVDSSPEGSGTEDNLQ

[18] = target: T3, High affinity choline transporter 1; experiment: CHT inhibitors, dose response, cell-based, 5-point CRC, membrane potential dye (AID 504840); format: functional
[19] = target: T3, High affinity choline transporter 1; experiment: CHT inhibitors, dose response, cell-based, 10-point CRC, membrane potential dye (AID 588401); format: functional;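 further: membrane potential dye fluorescence of choline-evoked depolarization via CHT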
[20] = target: T4, Calpain-2 catalytic subunit (Sus scrofa, UniProt P43367); experiment: pig calpain II inhibitor potency, dose response, biochemical, fluorogenic peptide substrate (AID 1420); format: functional
T4 sequence (P43367 whole entry): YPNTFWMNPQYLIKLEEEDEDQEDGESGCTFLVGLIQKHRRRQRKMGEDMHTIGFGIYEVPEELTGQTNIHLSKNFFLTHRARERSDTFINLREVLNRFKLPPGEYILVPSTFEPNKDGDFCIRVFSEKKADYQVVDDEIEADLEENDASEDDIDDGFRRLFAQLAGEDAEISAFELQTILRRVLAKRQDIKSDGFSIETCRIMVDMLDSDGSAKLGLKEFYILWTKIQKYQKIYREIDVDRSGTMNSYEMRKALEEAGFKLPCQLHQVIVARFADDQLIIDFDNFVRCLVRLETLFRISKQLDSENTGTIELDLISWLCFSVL

[21] = target: Mitochondrial peptide methionine sulfoxide reductase (Bos taurus, UniProt P54149); experiment: Absorbance-based biochemical high throughput dose response assay for activators of Methionine sulfoxide reductase A (MsrA).; format: functional
Chain of Mitochondrial peptide methionine sulfoxide reductase (P54149 whole entry): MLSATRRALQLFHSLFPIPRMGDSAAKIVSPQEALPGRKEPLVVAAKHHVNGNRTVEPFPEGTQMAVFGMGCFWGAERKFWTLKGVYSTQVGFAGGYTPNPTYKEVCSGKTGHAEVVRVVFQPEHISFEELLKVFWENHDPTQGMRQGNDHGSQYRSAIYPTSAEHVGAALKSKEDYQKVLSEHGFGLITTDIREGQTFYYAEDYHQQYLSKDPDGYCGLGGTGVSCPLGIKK

[22] = target: T5, Microphthalmia-associated transcription factor (Homo sapiens, UniProt O75030); experiment: TRPM1 promoter luciferase signal decrease, dose response, MITF inhibitor project, cell-based, SK-MEL-5, cherry-picked, set 3 (AID 493073); format: functional
T5 sequence (O75030 whole entry): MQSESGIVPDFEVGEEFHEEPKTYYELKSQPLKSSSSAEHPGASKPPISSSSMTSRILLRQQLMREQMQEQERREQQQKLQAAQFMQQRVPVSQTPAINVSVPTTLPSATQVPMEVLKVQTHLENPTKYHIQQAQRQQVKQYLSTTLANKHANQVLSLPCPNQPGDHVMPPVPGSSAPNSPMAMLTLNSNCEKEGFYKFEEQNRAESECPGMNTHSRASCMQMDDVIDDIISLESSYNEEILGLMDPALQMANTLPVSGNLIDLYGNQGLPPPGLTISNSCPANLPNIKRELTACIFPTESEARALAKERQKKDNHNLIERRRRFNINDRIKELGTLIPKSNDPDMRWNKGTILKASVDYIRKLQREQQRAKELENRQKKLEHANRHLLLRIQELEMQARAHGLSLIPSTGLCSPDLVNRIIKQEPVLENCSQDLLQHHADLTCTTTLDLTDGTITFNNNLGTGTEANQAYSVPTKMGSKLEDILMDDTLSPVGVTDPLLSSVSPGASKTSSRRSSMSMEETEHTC

[23] = ARNT/TACC3 interaction disruptors, potency, confirmation, biochemical, AlphaScreen, cherry-picked samples (AID 651703); format: functional, Homo sapiens;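 further: His-tagged ARNT PAS-B domain paired with GST-TACC3 E629A dimer coactivator fragment; potency of inhibitors that break up the complex and lower AlphaScreen signal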
[24] = target: T6, Aryl hydrocarbon receptor (Homo sapiens, UniProt P35869); settings: Potency;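 further: confirmatory quantitative high-throughput screen measuring activation of the AhR signaling pathway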
T6 sequence (P35869 whole entry): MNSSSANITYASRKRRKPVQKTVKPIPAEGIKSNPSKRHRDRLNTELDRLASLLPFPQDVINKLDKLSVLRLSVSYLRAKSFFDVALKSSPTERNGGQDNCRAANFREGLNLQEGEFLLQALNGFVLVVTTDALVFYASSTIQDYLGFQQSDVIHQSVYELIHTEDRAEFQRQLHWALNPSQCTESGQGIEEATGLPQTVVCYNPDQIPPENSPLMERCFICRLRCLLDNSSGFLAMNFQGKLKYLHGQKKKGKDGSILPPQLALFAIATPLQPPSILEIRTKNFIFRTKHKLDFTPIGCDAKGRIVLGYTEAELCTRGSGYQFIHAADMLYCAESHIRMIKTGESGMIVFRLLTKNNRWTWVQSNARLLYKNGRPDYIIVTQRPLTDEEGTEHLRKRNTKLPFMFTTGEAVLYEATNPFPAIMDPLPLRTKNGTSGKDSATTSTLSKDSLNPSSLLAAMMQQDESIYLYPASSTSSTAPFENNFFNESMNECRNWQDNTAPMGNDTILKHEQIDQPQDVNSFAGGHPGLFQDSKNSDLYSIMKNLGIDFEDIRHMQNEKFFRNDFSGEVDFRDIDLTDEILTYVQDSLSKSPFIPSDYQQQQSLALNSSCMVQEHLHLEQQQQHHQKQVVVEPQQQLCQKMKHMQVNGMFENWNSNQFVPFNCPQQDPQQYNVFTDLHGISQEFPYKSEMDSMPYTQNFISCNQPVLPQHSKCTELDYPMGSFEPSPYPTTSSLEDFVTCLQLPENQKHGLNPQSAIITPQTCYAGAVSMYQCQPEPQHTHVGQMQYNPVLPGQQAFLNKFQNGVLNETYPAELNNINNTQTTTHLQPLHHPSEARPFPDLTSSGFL

Chain of Dual specificity protein phosphatase 3 (P51452 whole entry): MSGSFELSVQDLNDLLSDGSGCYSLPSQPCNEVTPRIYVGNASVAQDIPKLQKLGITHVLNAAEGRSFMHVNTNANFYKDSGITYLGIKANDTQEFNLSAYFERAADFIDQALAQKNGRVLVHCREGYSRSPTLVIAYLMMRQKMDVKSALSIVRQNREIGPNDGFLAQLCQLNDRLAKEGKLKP

CCOc1ccc(CCNC(=O)CS(=O)(=O)Cc2nc(-c3ccc(OC)cc3)oc2C)cc1
IC50 [1]: 26.8 µM (inactive) | IC50 [2]: 9.1 µM (active) | IC50 [3]: > 80 µM (inactive)

COc1cc(C(=O)Nc2cccc(C)c2C)c(Br)c(OC)c1OC
IC50 [4]: 0.633 µM (active)

Cn1c(-c2ccccc2)cnc1N
AC50 [5]: 22.7 µM (active) | AC50 [6]: 102 µM (active) | AC50 [7]: 28.2 µM (inconclusive)

CC(=O)c1ccc(N2CCN(C(=O)Cc3ccccc3)CC2)c(F)c1
AC50 [8]: 4.97 µM (active)

CSc1nnc(NC(=O)c2nc(S(=O)(=O)Cc3ccccc3)ncc2Cl)s1
CC50 [9]: 31.1 µM (active) | IC50 [10]: 50.6 µM (active) | EC50 [11]: 4.73 µM (active) | AC50 [12]: 1.35 µM (active) | AC50 [13]: 5.23 µM (active) | AC50 [14]: 67.4 µM (active) | IC50 [15]: 5.52 µM (active) | AC50 [16]: 14.5 µM (active)

COc1ccc(C(=O)NC(C)Cc2cnccn2)cc1OC1CCN(C(C)C)CC1 (stereo unspecified)
IC50 [17]: 7.51 µM (active) | IC50 [18]: 9.9 µM (active) | IC50 [19]: 4.47 µM (active)

CCNC1=C(Cl)C(=O)c2ccccc2C1=O
IC50 [20]: > 50 µM (not active) | EC50 [21]: > 104 µM (inactive) | EC50 [11]: 20 µM (active) | AC50 [13]: 6.98 µM (active) | AC50 [22]: 3.84 µM (active)

C/C(CC(=O)NCc1ccccc1Cl)=N/NC(=O)c1ccccn1
AC50 [23]: 77.8 µM (active)

CCOP(=S)(OCC)Oc1ncn(-c2ccccc2)n1 [TRIAZOPHOS]
AC50 [24]: 11.2 µM (inconclusive)
